Source: publication PMC10415494, “Ga(III) pyridinecarboxylate complexes: potential analogues of the second generation of therapeutic Ga(III) complexes?” (Journal of Biological Inorganic Chemistry, 2023)

What was measured:
[1] = system: Pseudomonas aeruginosa (P. aeruginosa) CCM 1959; assay: Antimicrobial activity, macrodilution method (growth by A590); format: cell-based; conditions: for IC50: Bacteria, MHB, 37 °C, DMSO max 1.0 vol. %, read-out: IC50 P. aeruginosa
Procedure: (§1) The antimicrobial activities of gallium(III) complexes GaPic, GaDpic, GaChel, GaCldpic, free ligands (HPic, H2Dpic, H2Chel, H2Cldpic) and positive controls (cefoxitin (C), ampicillin (A) and piperacillin (P)) were evaluated by macrodilution method using G^+ bacteria (Firmicutes) Staphylococcus aureus (S. aureus) CCM 3953 (Czech Collection of Microorganisms), G^− bacteria (γ-proteobacteria) Escherichia coli (E. coli) CCM 3988, Pseudomonas aeruginosa (P. aeruginosa) CCM 1959 (Czech Collection of Microorganisms) and the yeast Candida parapsilosis (C. parapsilosis) ATCC 22019 (American type culture collection). Cultures of bacteria (in Mueller–Hinton broth, MHB) and yeasts (in Sabouraud’s growth medium, SB) were incubated under shaking (250 rpm) at 37 °C. The growth of bacteria and yeasts was evaluated by measuring the absorbance of the growing cultures (A590) until the cultures reached the stationary growth phase. The effects of gallium(III) complexes on the growth of filamentous fungi Rhizopus oryzae (R. oryzae) CCM F-8284, Alternaria alternata (A. alternata) CCM F-128 and Microsporum gypseum (M. gypseum) CCM F-8342 (Czech Collection of Microorganisms) were observed by macrodilution method on solidified potato-dextrose growth medium (PDA). During culturing, the diameters of growing fungal colonies were measured at regular intervals. Briefly, the antimicrobial activity (bacteria and yeasts) gallium(III) complexes/ ligands were added to the microbial culture at the beginning of the cultivation-to the lag phase. Pure gallium(III) complexes/ligands were dissolved in DMSO. The final concentration of DMSO never exceeded 1.0 vol. % neither in control nor treated samples. Concentration of gallium(III) complexes used in experimental work for evaluation of antimicrobial activity was used in the range of 0.05–2 mM, for the free ligands in the range of 0.5–2.0 mM in all experiments. […] The IC50 values were evaluated from toxicity curves. All the obtained results of antimicrobial activity were compared to the activity of Ga(NO3)3.

[2] = system: Escherichia coli (E. coli) CCM 3988; assay: as above; format: cell-based; conditions: for IC50: Bacteria, MHB, 37 °C, DMSO max 1.0 vol. %, read-out: IC50 E. coli; for partial inhibition of E. coli growth: concentration not given
Procedure: as §1

[3] = system: Staphylococcus aureus (S. aureus) CCM 3953; assay: as above; format: cell-based; conditions: for IC50: Bacteria, MHB, 37 °C, DMSO max 1.0 vol. %, read-out: IC50 S. aureus; for inhibition of S. aureus growth: complex at 2 mM
Procedure: as §1

[4] = system: Alternaria alternata (A. alternata) CCM F-128; assay: Growth of filamentous fungi, macrodilution method on solidified PDA (colony diameter); format: cell-based; conditions: Filamentous fungi; solidified potato-dextrose growth medium; read-out: IC50 A. alternata
Procedure: as §1

[5] = system: Microsporum gypseum (M. gypseum) CCM F-8342; assay: as above; format: cell-based; conditions: Filamentous fungi; solidified potato-dextrose growth medium; read-out: IC50 M. gypseum
Procedure: as §1

[6] = system: Rhizopus oryzae (R. oryzae) CCM F-8284; assay: as above; format: cell-based; conditions: solidified potato-dextrose growth medium; read-out: IC50 R. oryzae
Procedure: as §1

[7] = system: Candida parapsilosis (C. parapsilosis) ATCC 22019; assay: Antimicrobial activity, macrodilution method (yeast, growth by A590); format: cell-based; conditions: Yeast; Sabouraud's growth medium, 37 °C; read-out: IC50 C. parapsilosis
Procedure: as §1

[8] = system: human dermal fibroblasts (HDF); assay: in vitro
Procedure: (§2) Cell culture the cell lines A2058 (human metastatic melanoma), BLM (human metastatic melanoma), HCT116 (human colorectal carcinoma), HeLa (human cervical adenocarcinoma), Jurkat (human leukaemic T cell lymphoma). […] Cells were maintained in standard conditions with an atmosphere containing 5% CO2 at 37 °C.
(§3) The antiproliferative activity of Ga(III) complexes GaPic, GaDpic, GaChel, GaCldpic, free ligands (HPic, H2Dpic, H2Chel, H2Cldpic) and cisplatin (cisPt) were evaluated by colorimetric microculture MTS (3-(4,5-dimethylthiazol-2-yl)-5-(3-carboxymethoxyphenyl)-2-(4-sulfophenyl)-2H tetrazolium) assay (Promega, Madison, WI, USA). Cancer and non-cancer cells were seeded at density 5 × 10^3 cells/well in 96-well polystyrene microplates. Twenty-four hours after cell seeding, different concentrations (1.0—100.0 µM) of the compounds were tested. After 72 h of incubation, 10 µL of MTS was added to each well. After an additional 2 h, cell proliferation was evaluated by measuring of absorbance at wavelength 490 nm using the automated Cytation™ 3 Cell Imaging Multi-Mode Reader (Biotek, Winooski, VT, USA). The absorbance of control wells was taken as 100%, and the results were expressed as a percent of untreated control. IC50 values were calculated from MTS analyses.

[9] = Complex stability in biological testing medium by time-dependent 1H NMR; format: physicochemical; conditions: 300 K, over 96 h
Procedure: Nuclear magnetic resonance (NMR) data were collected on a Varian VNMRS 600 spectrometer operating at 599.87 MHz for ^1H. The concentration of all samples was approximately 3 mg/0.6 mL of 1% DMSO-d6/D2O. For comparison, the spectra of pure acids were also measured, while the pH of the solution of acids was adjusted to the same value as the solution of the complexes. The chemical shifts were referenced to the TSP (3-(trimethylsilyl)propionic-2,2,3,3-d4 acid sodium salt) peak (^1H NMR 0.00 ppm). The NMR data were recorded at 300 K, with chemical shifts δ reported in parts per million and coupling constants J in Hertz. All data were analysed using MestReNova 12.0.0 (2017) software. The stability in 1% DMSO-d6/D2O was determined for all samples. […]

[10] = system: PaTu 8902 (human pancreatic adenocarcinoma); assay: MTS antiproliferative assay
Procedure: as §2, §3

[11] = system: HeLa (human cervical adenocarcinoma); assay: MTS antiproliferative assay
Procedure: as §2, §3

[12] = system: Jurkat (human leukaemic T cell lymphoma); assay: MTS antiproliferative assay
Procedure: as §2, §3

[13] = system: MDA-MB-231 (human mammary gland adenocarcinoma); assay: MTS antiproliferative assay
Procedure: as §2, §3

[14] = system: HCT116 (human colorectal carcinoma); assay: MTS antiproliferative assay
Procedure: as §2, §3

[15] = system: A2058 (human metastatic melanoma); assay: MTS antiproliferative assay
Procedure: as §2, §3

[16] = molecular target: T1, bovine serum albumin (BSA) (Bos taurus, UniProt P02769); assay: BSA fluorescence quenching (Stern-Volmer); format: binding; conditions: 0.01 M PBS buffer pH 7.4, 25 °C, λex = 280 nm
T1 construct: purchased Sigma-Aldrich Chemicals
T1 sequence (P02769 25-607): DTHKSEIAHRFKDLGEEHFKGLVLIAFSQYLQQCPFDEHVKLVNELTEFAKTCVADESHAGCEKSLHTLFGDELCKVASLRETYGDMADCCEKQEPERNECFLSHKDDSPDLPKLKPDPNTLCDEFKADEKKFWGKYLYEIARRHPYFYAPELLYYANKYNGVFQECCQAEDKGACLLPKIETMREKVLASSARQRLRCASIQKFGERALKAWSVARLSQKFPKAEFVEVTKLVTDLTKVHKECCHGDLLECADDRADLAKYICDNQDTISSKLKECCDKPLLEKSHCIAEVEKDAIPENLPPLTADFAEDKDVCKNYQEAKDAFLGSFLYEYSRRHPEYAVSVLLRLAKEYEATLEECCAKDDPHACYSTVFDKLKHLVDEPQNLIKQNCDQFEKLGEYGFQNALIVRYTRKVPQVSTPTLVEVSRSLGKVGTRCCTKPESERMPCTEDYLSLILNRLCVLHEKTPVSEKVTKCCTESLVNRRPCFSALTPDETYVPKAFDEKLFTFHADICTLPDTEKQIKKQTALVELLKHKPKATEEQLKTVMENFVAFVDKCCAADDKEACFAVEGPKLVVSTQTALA
Procedure: Fluorescence measurements were carried out on a Varian Cary Eclipse spectrofluorometer. The quenching studies of BSA with the Ga(III) complexes were investigated to determine whether they were able to quench fluorescence of BSA. All measurements were performed at 25 °C in 0.01 M PBS buffer (pH 7.4). The fluorescence spectra were measured at an excitation wavelength of 280 nm, with a slit width of 10 nm for the excitation and emission beams, in the range of 300–450 nm and analysed according to the classical Stern–Volmer Equation: F0/F=1+KSVQ where F0 and F are the fluorescence intensities in the absence and the presence of the quencher, respectively, KSV is the Stern–Volmer constant, and [Q] is the concentration of quencher.

[17] = Procedure: The stock solution of HPic and H2Dpic was prepared by dissolving in demineralized water (c(ligand) = 0.02 M). The gallium(III) ion solution was prepared from anhydrous gallium(III) nitrate (c(Ga^3+) = 0.05 M) and was standardized by back titration of excess of EDTA with zinc(II). Decarbonated potassium hydroxide solution (approx. 0.2 M) was used as a titrant that was standardized by potassium hydrogen phthalate (c(KHP) = 0.1 M). Standard inert electrolyte of nitric acid was used in all titrations (c(HNO3) = 0.03 M, I(HNO3/KNO3) = 0.1 M). Potentiometric measurements were carried out using a TitroLine 7000 dosage system with a BlueLine combination electrode (SI Analytics) in a glass vessel (5 mL) thermostated at 25 ± 0.1 °C at an ionic strength I(KNO3) = 0.1 M. Inert atmosphere was ensured by a constant flow of a nitrogen gas. Precise calibration of the electrode was carried out by the titration of 0.03 M HNO3 with 0.2 M KOH in the range –log[H^+] = 1.8–12.0, with the pH-meter yielding E values. The relation between E and –log[H^+] is expressed by Eq. (1) where the term E^0 contains the standard potentials of the electrode and the contribution of inert ions to the liquid-junction potential. The value S corresponds to the Nernstian slope, the value of which should be close to the theoretical value, and j1[H^+] and j2[OH^–] = j2Kw/[H^+] are contributions of the H^+ and OH^– ions, respectively, to the liquid-junction potential. The pKw value was 13.78 in Eq. (1).1 E=E^0-S-logH^++j1H^++j2Kw/H^+
The parameters j1 and j2 cause deviation from linear dependence between E and –log[H^+] only in strongly acidic and strongly alkaline solutions. The picolinic and dipicolinic acid protonation constants were determined with ligand concentration 0.004 M. The stability constants in the Ga-HPic and Ga-H2Dpic binary system were determined by the ligand concentrations 0.004 and the Ga^3+ concentration was 0.004, 0.002 and 0.001 M in dependence on the ligand to metal ratio.
The protonation constants β110, β210 are the concentration constants and are defined by β110 = [HL]/ [H][L], β210 = [H2L]/ [H]^2[L] (pK2 = logβ110, pK1 = logβ210- logβ110); the stability constants are defined by βrqp = [HrLqMp]/[H]^r[L]^q[M]^p. The equilibrium constants were obtained by fitting the titration data with OPIUM [23]. The following hydrolysis constants were used for the calculations: βpr = [Mp(OH)r^3−r][H]^r/[M]^p; log β11 = − 2.74; log β12 = − 7.0; log β13 = − 11.96; log β14 = − 15.52 [24].

| SMILES | IC50 [1] | IC50 [2] | IC50 [3] | IC50 [4] | IC50 [5] | IC50 [6] | IC50 [7] | IC50 [8] | stability in 1% DMSO-d6/D2O solution [9] | IC50 [10] | IC50 [11] | IC50 [12] | IC50 [13] | IC50 [14] | IC50 [15] | partial inhibition of E. coli growth [2] | inhibition of S. aureus growth [3] | other results |
| --- | --- | --- | --- | --- | --- | --- | --- | --- | --- | --- | --- | --- | --- | --- | --- | --- | --- | --- |
| O=[N+]([O-])[O-].O=[N+]([O-])[O-].O=[N+]([O-])[O-].[Ga+3] [Ga(NO3)3, gallium(III) nitrate] | > 500 µM | > 500 µM | > 500 µM | > 500 µM | > 500 µM | > 500 µM | > 500 µM | – | – | – | – | – | – | – | – | – | – | – |
| O.O.O.O.O.O.O=C([O-])c1cc(O)cc(C(=O)[O-])n1.O=C([O-])c1cc(O)cc(C(=O)[O-])n1.[Ga+3].[Ga+3].[OH-].[OH-] [GaChel, [Ga(Chel)(H2O)(OH)]2·4H2O] | 500 µM | > 2000 µM | 2000 µM | > 2000 µM | > 2000 µM | > 2000 µM | > 2000 µM | 347 ± 25.5 µM | stable | 610 ± 54 µM | 1410 ± 155 µM | 418 ± 100 µM | 199 ± 45.6 µM | 406 ± 86.8 µM | 415 ± 4 µM | 9% | 50% | MIC100 (MIC) P. aeruginosa ([1]; growth fully inhibited (100%)): 1000 µM |
| O.O=C([O-])c1cccc(C(=O)[O-])n1.O=C([O-])c1cccc(C(=O)[O-])n1.[Ga+3].[OH3+] [GaDpic, H3O[Ga(Dpic)2]·H2O] | – | > 2000 µM | > 2000 µM | > 2000 µM | > 2000 µM | > 2000 µM | > 2000 µM | 288 ± 26.6 µM | stable | 509 ± 32.6 µM | 1140 ± 135 µM | 325 ± 34.9 µM | 308 ± 67.8 µM | 1240 ± 58.9 µM | 287 ± 59.3 µM | 30% | 24% | Stern–Volmer binding constant Ksv BSA [16]: 68500 M⁻¹ |
| O=C([O-])c1cccc(C(=O)[O-])n1.O=C([O-])c1cccc(C(=O)[O-])n1.[Ga+3].[OH-] [[Ga(Dpic)2(OH)]^2−] | – | – | – | – | – | – | – | – | – | – | – | – | – | – | – | – | – | stability constant logβ-121 [17]: 11.08(4) |
| O=C([O-])c1cccc(C(=O)[O-])n1.O=C([O-])c1cccc(C(=O)[O-])n1.[Ga+3] [[Ga(Dpic)2]^−] | – | – | – | – | – | – | – | – | – | – | – | – | – | – | – | – | – | stability constant logβ021 [17]: 15.42(9) |
